Patent US20200164005A1, “PHARMACEUTICAL COMPOSITIONS OF A BILE ACID DERIVATIVE AND MICROBIOME AND USES THEREOF” (Intercept Pharmaceuticals, Inc., priority 2017, published 2020)

How the values were obtained:
[1] = system: C4 (7α-hydroxy-4-cholesten-3-one); experiment: Plasma C4 level after OCA and its association with microbiome species (GEE); format: in vivo, human
Protocol: C4 level was measured on 5 mg and 10 mg OCA dose groups. The day 1 pre-dose C4 was used as a match of day 1 microbiome measurement. The average level of C4 from day 4 to day 17 pre-dose was calculated as a match of day 15 or 16 microbiome measurement. The average C4 level on day 30 and day 44 was used as a match of microbiome on day 37. The average of multiple time points was taken to match the three time points of microbiome measurements.
Geeglm(fgf19·log 2˜hour+dose+hour:dose, id=sID, corstr=“exchangeable”) • C4 analysis: The GEE model was applied in association study of C4 and microbiome species. Both C4 and species relative abundance were log 2 transformed before applying GEE model.
Geeglm(species·log 2˜C4·log 2, id=sID, corstr=“exchangeable”)
Twenty-four healthy subjects were randomly assigned to one of three dose groups (5 mg, 10 mg, or 25 mg OCA per day), with each dose group comprising eight subjects (four women and four men). A single oral OCA dose of 5 mg, 10 mg, or 25 mg tablets, depending on the treatment assignment, was administered on Day 1. In the multiple-dose phase, a single oral OCA dose of 5 mg, 10 mg, or 25 mg tablets, in accordance with the assigned treatment, was administered orally once daily for 14 days from Days 4-17. The patients remained at the study site until Day 30, and were followed up until the final visit on Day 44 (FIG. 62A). Fecal specimens were collected at baseline (Day 0), at the end of the multiple-dose phase (Day 17), and at the end of the study (Day 37). Pharmacokinetic blood samples were assessed pre-dose and on Days 1-3, 17, 35, 37, 39, and 44. […] Therefore, plasma C4 levels are a reliable dynamic indicator of the host response to FXR activation by OCA, that leads to the suppression of endogenous bile acid synthesis (Hirschfield et al., Gastroenterology 148, 751-761 e758 (2015); Mudaliar et al., Gastroenterology 145, 574-582 e571 (2013)).

[2] = system: bacterial strains found in the human small intestine; experiment: Inhibition of bacterial growth by bile acids, microbroth dilution, optical density at 630 nm; format: cell-based
Protocol: The toxicity of several bile acids to various gut microbiome species was examined. Representative species were exposed to different bile acids at a range of concentrations under either aerobic or anaerobic condition, and the growth of the species at these concentrations was measured by determining the optical density of the culture.
Lactobacillus casei CP was purchased from Custom Probiotics Inc. (Glendale, Calif.) as L. casei Custom Probiotic Powder (strain confirmed by Sanger sequencing of the 16S gene). Pediococcus pentosaceus KE-99 was purchased from Probiohealth (Beverly Hills, Calif.) as KE-99 LACTO Tablet (strain confirmed by Sanger sequencing of the 16S gene). L. casei 393, Streptoccocus thermophilus LMD-9, Akkermansia muciniphila Muc, and Veillonella parvula Te3 were purchased from the American Type Culture Collection (ATCC, Manassas, Va.). Lactococcus lactis NZ9000 was purchased from BOCA Scientific (Boca Raton, Fla.). Escherichia coli Nissle was obtained from Dr. Mark Goulian (University of Pennsylvania, Philadelphia, Pa.).
L. casei, P. pentasaceus, and L. lactis were grown in de Man, Rogosa, and Sharpe (MRS) medium (Anaerobe Systems, Morgan Hill, Calif.); E. coli was grown in lysogeny broth (LB) medium (Fisher Scientific, USA); S. thermophilus and A. muciniphila were grown in brain heart infusion (BHI) medium (Fisher Scientific, USA and Anaerobe Systems, Morgan Hill, Calif.), and; V. parvula was grown in reinforced clostridial medium (Fisher Scientific, USA). Aerobic cultures were incubated at 37° C.; anaerobic cultures were incubated at 37° C. in an anaerobic glove box (Coy Laboratories, Grass Lake, Mich.).
Glycochenodeoxycholic, glycocholic, and taurocholic acids were purchased from Sigma Aldrich (St. Louis, Mo.). Obeticholic acid was provided by Intercept Pharmaceuticals, Inc. (New York, N.Y.).
Inhibition of bacterial growth by bile acids was determined by the microbroth dilution method. Plates were prepared with 100 uL of medium containing the appropriate concentrations of bile acid. Wells were inoculated with 1 uL of an overnight culture, covered, and incubated overnight (3 days for A. muciniphila and V. parvula, which are slow growing organisms). Growth was measured via optical density at 630 nm, and measurements were zeroed against wells containing the appropriate bile acid level with no bacteria. All tests were performed in triplicate. Data is expressed as the percent (%) reduction in growth, which was calculated against controls (i.e., no bile acids). The responses of representative species to different concentrations of bile acids are illustrated by the heat maps shown in FIGS. 53A-53D.

For `CC[C@H]1[C@@H](O)[C@@H]2[C@H](CC[C@]3(C)[C@@H]([C@H](C)CCC(=O)O)CC[C@@H]23)[C@@]2(C)CC[C@@H](O)C[C@@H]12` [OCA, 3α,7α-dihydroxy-6α-ethyl-5β-cholan-24-oic acid], the “plasma levels of C4 relative to Day 0 (pre-OCA dose)” value ([1]; Day 16) was “maximally suppressed”, the “plasma levels of C4 at maximal time off OCA” value ([1]; Day 37) was “returned to normal” and the “plasma C4 in response to OCA treatment” value ([1]; serial quantification, repeated measure ANOVA) was “time-dependent reduction”. For the same compound, the “effect on growth at calculated physiologic levels of the human small intestine” value ([2]; approximately 12 micromolar, aerobically or anaerobically) was “no effect on any strain tested” and the “effect on growth at high concentrations” value ([2]; high concentrations of OCA) was “growth inhibitory effect on several strains”.
